Source: the NIST ThermoML archive (doi:10.1016/j.jct.2018.08.038)
± gives the expanded uncertainty stated by the source.

Conditions: 101.33 kPa, Liquid, Vibrating tube method

| Compound | mass density (303.15 K) | mass density (313.15 K) | mass density (323.15 K) | mass density (333.15 K) |
| --- | --- | --- | --- | --- |
| CCCC[n+]1ccccc1.O=S(=O)([N-]S(=O)(=O)C(F)(F)F)C(F)(F)F [1-butylpyridinium bis[(trifluoromethyl)sulfonyl]imide] | 1449.8 ± 2.1 kg/m3 | 1440.3 ± 2.1 kg/m3 | 1431.1 ± 2.1 kg/m3 | 1421.9 ± 2.1 kg/m3 |
| CCCC[n+]1ccccc1.N#C[N-]C#N [1-butylpyridinium dicyanamide] | 1074.8 ± 2 kg/m3 | 1069.7 ± 2 kg/m3 | 1064.4 ± 2 kg/m3 | 1059.5 ± 2 kg/m3 |
